# Counter-ions that a name gives are not always drawn.
# Tests used:
# ERK2-βarr2 complex = ERK2-βarr2 complex (Rattus norvegicus, UniProt P29067); assay: Pull-down of 3×Flag-ERK2 with βarr2; type: binding; conditions: series of concentrations of compound
# Method: Given this surprising result on the ability of Cmpd-30 to activate ERK βarr1/2-dependent but receptor independent manner, next it was determined whether βarr2 and ERK2 can physically interact in the presence of Cmpd-30 by a pull-down assay. Purified 3×Flag-ERK2 was incubated with βarr2 in the presence of a series of concentrations of Cmpd-30 or vehicle.
# βarr2 [1] = target: T1, βarr2 (Rattus norvegicus, UniProt P29067); assay: Dynamic light scattering (DLS) of βarr2; design: final βarr2 (truncated βarr2 at 394) concentration of ˜1 mg/mL; made in house; conditions: control βarr2 7.1 nm; Cmpd-30 60 μM
# Method: DLS was performed on a Zetasizer Nano ZS instrument (Malvern Instruments, UK) at an excitation He—Ne laser source of 633 nm and a detector at a scattering angle of 173°. The measurements were obtained at 25° C. and defined time intervals. A low volume (100 μl) disposable sample cuvette was used (BRAND, Wertheim, Germany). The protein solutions used for all particle size measurements were at a final βarr2 (truncated βarr2 at 394) concentration of ˜1 mg/mL (20 μM) in a buffer consisting of […] (pH 7.4) and 150 mM NaCl in presence of Cmpd-30 (60 μM), IP6 (300 uM) or vehicle (DMSO). Size distributions of scattering particles of different βarr2 sample were obtained after data analysis performed on intensity and volume size distribution curves and the molecular mass and Z-average size calculated using Malvern DTS software.
# βarr2 [2] = target: T1, βarr2; assay: Negative-stain electron microscopy, 2D class averages of βarr2; design: final βarr2 (truncated βarr2 at 394) concentration of ˜1 mg/mL; made in house
# Method: To prepare for EM visualization of the architecture and structural organization of βarr2-Cmpd30 complexes, purified βarr2 (394) was diluted to 0.5 μM and incubated with 5 μM Cmpd-30 or vehicle (DMSO) in HN buffer (20 mM HEPES pH 7.4 and 150 mM NaCl) for 7 min at room temperature followed by dilution 10× into HN buffer containing 1 μM Cmpd-30, before negative staining. The positive control, βarr2 bound to IP6 sample was prepared similarly (5 μM and 250 μM, respectively) and was diluted 100× into HN buffer containing 10 μM IP6. Grids were prepared using conventional negative-staining protocols as described previously (Peisley, A. & Skiniotis, G. 2D Projection Analysis of GPCR Complexes by Negative Stain Electron Microscopy. Methods Mol Biol 1335, 29-38, doi:10.1007/978-1-4939-2914-6_3 (2015). Briefly, 3 μL of samples were applied onto a glow-discharged EM carbon-coated copper grid, adsorbed on the grid surface, blotted, stained, and air dried before imaging. EM grids were examined with a FEI Tecnai G2 Twin electron microscope and operated at an acceleration voltage of 120 kV. Images were recorded with an Eagle 2K CCD camera at a magnification of ×65,200 and a defocus value of ˜1.5 μm. Two-dimensional EM reference-free alignment and classification of particle projections were performed with the iterative stable alignment and clustering procedure (ISAC)(Yang, Z., et al., Iterative stable alignment and clustering of 2D transmission electron microscope images. Structure 20, 237-247, doi:10.1016/j.str.2011.12.007 (2012)). EM single particles were both automatically and manually selected using Boxer (part of the EMAN 2.1 software suite)(Tang, G. et EMAN2: an extensible image processing suite for electron microscopy. J Struct Biol 157, 38-46, doi:10.1016/j.jsb.2006.05.009 (2007)). A total of ˜250,000 0° particles projections were picked representing all the three βarr2 samples (with vehicle, Cmpd-30 or IP6) and windowed into 96×96-pixel images (with the RELION 2.1-beta-1 software package) and subjected to ISAC. […]
# T1 sequence (P29067 1-394): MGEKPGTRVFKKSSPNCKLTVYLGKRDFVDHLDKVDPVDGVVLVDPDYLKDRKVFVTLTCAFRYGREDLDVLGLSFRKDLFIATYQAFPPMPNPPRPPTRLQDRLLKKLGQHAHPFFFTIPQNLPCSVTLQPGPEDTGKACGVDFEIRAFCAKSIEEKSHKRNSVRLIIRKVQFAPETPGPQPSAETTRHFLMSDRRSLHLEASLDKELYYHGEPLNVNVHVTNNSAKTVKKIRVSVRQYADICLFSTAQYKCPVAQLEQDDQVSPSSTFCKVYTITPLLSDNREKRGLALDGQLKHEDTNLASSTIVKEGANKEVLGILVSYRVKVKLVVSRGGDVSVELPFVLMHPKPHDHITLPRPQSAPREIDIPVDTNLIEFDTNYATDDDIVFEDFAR
# Sequence of ERK2-βarr2 complex (P29067 whole entry): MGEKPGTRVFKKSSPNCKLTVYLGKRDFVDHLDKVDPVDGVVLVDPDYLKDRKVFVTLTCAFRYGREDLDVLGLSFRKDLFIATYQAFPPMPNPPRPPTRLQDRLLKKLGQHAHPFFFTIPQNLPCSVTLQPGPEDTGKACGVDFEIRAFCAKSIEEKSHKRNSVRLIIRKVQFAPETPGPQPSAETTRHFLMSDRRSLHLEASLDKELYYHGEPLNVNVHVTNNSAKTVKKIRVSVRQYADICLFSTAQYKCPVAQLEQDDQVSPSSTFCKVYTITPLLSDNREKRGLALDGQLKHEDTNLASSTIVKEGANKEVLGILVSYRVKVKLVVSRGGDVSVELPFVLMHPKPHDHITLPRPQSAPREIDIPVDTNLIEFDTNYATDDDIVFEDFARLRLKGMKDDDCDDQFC
# Sequence of ERK2-βarr2 complex (P28482 whole entry partner): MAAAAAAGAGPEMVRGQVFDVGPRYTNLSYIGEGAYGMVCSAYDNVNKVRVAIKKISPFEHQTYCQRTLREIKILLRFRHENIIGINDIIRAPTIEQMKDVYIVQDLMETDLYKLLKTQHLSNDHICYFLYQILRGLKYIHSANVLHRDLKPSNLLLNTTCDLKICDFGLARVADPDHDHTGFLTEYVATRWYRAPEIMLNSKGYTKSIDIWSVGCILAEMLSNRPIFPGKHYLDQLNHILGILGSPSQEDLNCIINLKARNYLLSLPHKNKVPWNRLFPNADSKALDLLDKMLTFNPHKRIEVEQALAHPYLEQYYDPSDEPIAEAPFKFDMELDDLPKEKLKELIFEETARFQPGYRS
compound,measurement,setting,value
"CN(C)c1n/c(=N/Cc2ccco2)ss1 [Cmpd-30, 5-(furan-2-ylmethylimino)-N,N-dimethyl-1,2,4-dithiazol-3-amine;hydrobromide]",ERK2-βarr2 complex formation,ERK2-βarr2 complex,forms a complex in vitro with βarr2 in a Cmpd-30-dependent manner
same,particle (hydrodynamic) diameter of βarr2,βarr2 [1],8.2 nm
same,particle average width of βarr2 class averages,βarr2 [2]; control βarr2 ~72 Å,80-90 Å
same,class averages represented as homo-oligomers (dimers/trimers),βarr2 [2]; control βarr 97% monomeric,95%

# From patent US20220315574A1, “Beta-Arrestin-Modulating Compounds and Methods of Using Same” (Duke University, priority 2019, published 2022)
